Laboratory results reported in PMC4298654, “In vivo formation of N-acyl-fumonisin B1” (Mycotoxin Research, 2014).

Test: In vivo formation of NAFB1 and NAHFB1 in rat kidney and liver (HPLC-ESI-MS/MS)
Design: N-acyl-derivative in tissue sample, analysis a / N-acyl-derivative in tissue sample, analysis b / N-acyl-derivative in tissue sample, mean: unit not given here
Details: 5 days
Description: The study protocol was approved by the Institutional Animal Care and Use Committee, Richard B. Russell Agricultural Research Center, Athens, GA. Male Sprague–Dawley rats (Harlan Industries, Indianapolis, IN, USA), 7 weeks of age at receipt, were individually housed in stainless steel, wire mesh cages in an environmentally controlled room having a 12-h light/dark cycle. Food (2019 Global Rodent Diet, Teklad, Madison, WI, USA) and fresh tap water were provided ad libitum. After a 1 week acclimation period, the animals were randomly assigned to five groups (n = 2/group) having mean weights of 215 to 216 g (weight range of all animals, 211 to 220 g). For five consecutive days, they were observed, weighed, and given an intraperitoneal injection (ip) of 0 (vehicle), 0.5, 1.0, or 2.0 mg/kg body weight FB1 (provided by R. Eppley, US FDA), 1.0 mg/kg body weight HFB1 (positive control) (Voss et al. [2009]), or vehicle (0.9 % physiological saline). These doses corresponded to 0.69, 1.38, and 2.77 μmol FB1/kg body weight and 2.47 μmol/kg body weight HFB1 per day. In order to compare the effects of FB1 and HFB1, dosages will be expressed as molar concentrations and, on this basis, the high dose of FB1 is roughly equivalent to that of the positive control dose of HFB1. Dosing solutions were sterile filtered and administered at a volume rate of 10 ml/kg body weight. The animals were fasted overnight prior to administration of the final dose. The rats were euthanized (CO2 inhalation and exsanguination) 60 to 90 min following the final dose administration and examined by necropsy. The kidney and liver specimens were fixed in 10 % neutral buffered formalin, processed, and microscopically evaluated without knowledge of the animal’s identity or treatment group. Three representative liver and kidney specimens (100 mg each) were also collected, immediately frozen, and stored (−80 °C) until processed, at which time the tissues were thawed and homogenized in distilled/deionized water (1 ml water/100 mg tissue). The homogenates were lyophilized before they were shipped by overnight courier for the analysis of fumonisin metabolites and sphingolipids.
Lyophilized liver and kidney tissues (100 mg wet weight equivalents) were processed for the quantification of FB1, HFB1, NAFB1, NAHFB1, and sphingolipids. Preparation of the tissue samples was performed according to a previously published method (Harrer et al. [2013]). For the quantification of FB1 and HFB1, a d6-labeled derivative of FB1 (FB1-d6) was used as the internal standard. Synthetic derivatives with a heptadecanoic fatty acid (C17:0) residue were used as internal standards for the quantification of N-acyl-fumonisins and ceramides (N-C17:0-FB1, N-C17:0-HFB1, and N-C17:0-ceramide). The sphingoid bases and their phosphate derivatives were quantified using synthetic derivatives with a C17-acyl-backbone: sphingosine (C17:1), sphingosine-1-phosphate (C17:1), sphinganine (C17:0), sphinganine-1-phosphate (C17:0) as internal standards. The standards were dissolved in methanol:chloroform (2:1, v/v) and then mixed with the tissue samples. The samples spiked with internal standard were kept at room temperature for 30 min before being processed further. The internal standard-spiked samples were first extracted with ethyl acetate, isopropanol, and water (60:30:10, v/v/v) and a second time using methanol, chloroform, and water (60:30:10, v/v/v). The extracts were combined, the solvents removed by evaporation, and the dried samples stored at−80 °C till analyzed.
For the analysis, the samples were reconstituted in a mixture of water, methanol, and tetrahydrofurane (60:24:16, v/v/v). The NAFB1 and NAHFB1 derivatives having the following fatty acyl chain lengths were quantified by HPLC-MS/MS: C16:0, C18:0, C20:0, C22:0, C24:0, C26:0. Furthermore, we also quantified the unsaturated derivatives C24:1 and C26:1. The results are given as the sum of all N-acyl derivatives of FB1 or HFB1. […]

[1] = Kidney, treatment FB1 0,5 mg/kg BW ip
[2] = Kidney, treatment FB1 1 mg/kg BW ip
[3] = Kidney, treatment FB1 2 mg/kg BW ip
[4] = Kidney, treatment HFB1 1 mg/kg BW ip
[5] = Liver, treatment FB1 0,5 mg/kg BW ip
[6] = Liver, treatment FB1 1 mg/kg BW ip
[7] = Liver, treatment FB1 2 mg/kg BW ip
[8] = Liver, treatment HFB1 1 mg/kg BW ip

SMILES | N-acyl-derivative in tissue sample, analysis a [1] | N-acyl-derivative in tissue sample, analysis b [1] | N-acyl-derivative in tissue sample, mean [1] | N-acyl-derivative in tissue sample, analysis a [2] | N-acyl-derivative in tissue sample, analysis b [2] | N-acyl-derivative in tissue sample, mean [2] | N-acyl-derivative in tissue sample, analysis a [3] | N-acyl-derivative in tissue sample, analysis b [3] | N-acyl-derivative in tissue sample, mean [3] | N-acyl-derivative in tissue sample, analysis a [4] | N-acyl-derivative in tissue sample, analysis b [4] | N-acyl-derivative in tissue sample, analysis a [5] | N-acyl-derivative in tissue sample, analysis b [5] | N-acyl-derivative in tissue sample, mean [5] | N-acyl-derivative in tissue sample, analysis a [6] | N-acyl-derivative in tissue sample, analysis b [6] | N-acyl-derivative in tissue sample, mean [6] | N-acyl-derivative in tissue sample, analysis a [7] | N-acyl-derivative in tissue sample, analysis b [7] | N-acyl-derivative in tissue sample, mean [7] | other results
CCCCCCCCC=CCCCCCCCCCCCCCC(=O)NC(C)C(O)CC(O)CCCCC(O)CC(C)CC(OC(=O)CC(CC(=O)O)C(=O)O)C(OC(=O)CC(CC(=O)O)C(=O)O)C(C)CCCC (stereo not shown) [FB1C24:1] | 3,6 | 3,5 | 3,6 | 4,1 | 4,6 | 4,3 | 5,7 | 4,2 | 4,9 | 0,0 | 0,0 | 9,2 | 11,8 | 10,5 | 3,4 | 6,3 | 4,9 | 9,0 | 11,1 | 10,1 | N-acyl-derivative in tissue sample, mean [4]: 0,0; N-acyl-derivative in tissue sample, analysis a [8]: 0,0; N-acyl-derivative in tissue sample, analysis b [8]: 0,0; N-acyl-derivative in tissue sample, mean [8]: 0,0
CCCCCCCCCCCCCCCCCCCCCC(=O)N[C@@H](C)[C@@H](O)C[C@H](O)CCCC[C@@H](O)C[C@H](C)C[C@H](O)[C@H](O)[C@H](C)CCCC [HFB1C22:0] | 0,0 | 0,0 | 0,0 | 0,0 | 0,0 | 0,0 | 0,0 | 0,0 | 0,0 | 1,5 | 4,3 | 0,0 | 0,0 | 0,0 | 0,0 | 0,0 | 0,0 | 0,0 | 0,0 | 0,0 | N-acyl-derivative in tissue sample, mean [4]: 2,9; N-acyl-derivative in tissue sample, analysis a [8]: 61,0; N-acyl-derivative in tissue sample, analysis b [8]: 45,8; N-acyl-derivative in tissue sample, mean [8]: 53,4
CCCCCCCCCCCCCCCCCC(=O)NC(C)C(O)CC(O)CCCCC(O)CC(C)CC(OC(=O)CC(CC(=O)O)C(=O)O)C(OC(=O)CC(CC(=O)O)C(=O)O)C(C)CCCC (stereo not shown) [FB1C18:0] | 2,5 | 2,9 | 2,7 | 3,8 | 3,1 | 3,4 | 4,0 | 2,8 | 3,4 | 0,0 | 0,0 | 3,1 | 2,4 | 2,8 | 2,0 | 3,0 | 2,5 | 3,0 | 3,9 | 3,5 | N-acyl-derivative in tissue sample, analysis a [8]: 0,0; N-acyl-derivative in tissue sample, analysis b [8]: 0,0
